Several values for one entry are separate records, joined by “and”; a condition that tells them apart may be missing. Identical values can stand only once.
Tests used:
[1] = test system: Murine CT-26 colon carcinoma cells; assay: CT-26 syngeneic colon carcinoma model, intratumoral or intravenous monotherapy (Example 10, studies 1-3); assay type: in vivo, Balb/c mice
Description: The in vivo anti-tumor efficacy of the TLR4 agonist (CRX-601) was assessed in the murine CT-26 colon carcinoma syngeneic solid tumor model as a monotherapy and in combination with […] a therapeutic antibody (combination data not shown). Seven to eight week old female Balb/c mice (BALB/cAnNCrl, Charles River) were used in these studies. Murine CT-26 colon carcinoma cells (ATCC catalog number CRL-2638 lot #59227052) were cultured in RPMI growth medium supplemented with 10% fetal bovine serum (FBS) in a humidified 37° C. incubator with 5% CO2, CT-26 cells cultured in logarithmic growth were harvested from tissue culture flasks and centrifuged for 5 minutes at 450×g at 4° C. for ten minutes to pellet cells. The supernatant was discarded, and cells were washed in ice cold phosphate buffered saline (PBS) without calcium and magnesium and centrifuged again for 5 minutes at 450×g at 4° C. for ten minutes to pellet cells. The cells were resuspended in sterile RPMI media without FBS and adjusted to a cell concentration of 500,000 cells/ml, 100 μl of the cell stock was implanted via subcutaneous injection into the right flank of each Balb/c mouse. After ten or eleven days when the average tumor size reached approximately 100 mm^3, mice were randomized into study cohorts according to tumor size and the first treatment dose was given. The TLR4 agonist (CRX-601) or vehicle was dosed via a systemic intravenous or direct intratumoral injection as indicated. The CRX-601 vehicle used for intravenous and intratumoral dosing was […] where indicated. For CRX-601 liposomal intratumoral dosing, a DOPC/CHOL liposome prepared by GSK Lot #1783-157-B was used. The therapeutic antibody was dosed via an intraperitoneal injection given twice per week for a total of six doses. Caliper measurements were taken three times per week to assess tumor growth, and mice with tumors <2,000 mm^3 were maintained on study from 30 up to approximately 115 days. Mice with tumors >2,000 mm^3 for 2 consecutive measurements or mice with tumors which formed open ulcers were removed from the study. Tumor volume was calculated using the formula (0.52)×(Length)×(Width^2). In study 3, tumor-free mice were re-challenged with CT-26 tumor cells as described above, on the opposite flank from the original inoculation site and tumor growth was monitored, as described above. All studies were conducted in accordance with the GSK Policy on the Care, Welfare and Treatment of Laboratory Animals and were reviewed by the Institutional Animal Care and Use Committee at GSK.
For studies 1 and 2, to determine significance of tumor growth inhibition, tumor volumes at 11 study 1) or 15 (study 2) days after first dose were compared between the different treatment groups. Prior to the analysis, tumor volumes were natural log transformed due to the inequality of variance in the different treatment groups. ANOVA followed by pair-wise comparison was then carried out on the log transformed data. SAS 9.3 and R 3.0.2 analysis software was used. Kaplan-Meier (KM) method was carried out to estimate the survival probability of different treatment groups at a given time. The event for survival analysis was tumor volume of 2000 mm^3 or tumor ulceration, whichever came first. The exact time to cut-off volume was estimated by fitting a linear line between log tumor volume and day of two observations, the first observation that exceed the cut-off volume and the one observation that immediately preceded the cut-off volume. The median time to endpoint and its corresponding 95% confidence interval was calculated. Whether or not KM survival curves were statistically different between any two groups was then tested by log-rank test. The raw p-value, as well as the false discovery rate (FDR) adjusted p-values, from the comparisons of days to events by survival analysis and the comparisons of log transformed tumor volume at indicated days between treatment groups was determined. […]

[2] = test system: CT-26 cells; assay: CT-26 two-flank model, abscopal effect (study 4); assay type: in vivo, mice
Description: The in vivo anti-tumor efficacy of the TLR4 agonist (CRX-601) was assessed in the murine CT-26 colon carcinoma syngeneic solid tumor model as a monotherapy and in combination with […] a therapeutic antibody (combination data not shown). Seven to eight week old female Balb/c mice (BALB/cAnNCrl, Charles River) were used in these studies. Murine CT-26 colon carcinoma cells (ATCC catalog number CRL-2638 lot #59227052) were cultured in RPMI growth medium supplemented with 10% fetal bovine serum (FBS) in a humidified 37° C. incubator with 5% CO2, CT-26 cells cultured in logarithmic growth were harvested from tissue culture flasks and centrifuged for 5 minutes at 450×g at 4° C. for ten minutes to pellet cells. The supernatant was discarded, and cells were washed in ice cold phosphate buffered saline (PBS) without calcium and magnesium and centrifuged again for 5 minutes at 450×g at 4° C. for ten minutes to pellet cells. […] Tumor volume was calculated using the formula (0.52)×(Length)×(Width^2). In study 3, tumor-free mice were re-challenged with CT-26 tumor cells as described above, on the opposite flank from the original inoculation site and tumor growth was monitored, as described above. […]
An abscopal effect is described as distant tumor regression after a local tumor treatment. […] Tumor size was monitored for both the right and left flank tumors. […]

[3] = test system: CT-26 colorectal tumor cells; assay: CT-26 syngeneic colon carcinoma model, escalating i.p. doses (Example 9); assay type: in vivo, Balb/c mice; conditions: CRX-601, similar experiment; 4, 20 or 100 ug

CCCCCCCCCCC[C@H](CC(=O)N[C@H]1[C@H](OC[C@H](NC(=O)C[C@@H](CCCCCCCCCCC)OCCCCCCCCCC)C(=O)O)O[C@H](CO)[C@@H](OP(=O)(O)O)[C@@H]1OC(=O)C[C@@H](CCCCCCCCCCC)OCCCCCCCCCC)OCCCCCCCCCC [CRX-601]
tumor status of single mouse remaining on study ([1]; study 1, 10 ug intratumoral group, day 42): tumor-free
tumor growth inhibition compared to vehicle ([1]; study 1, 10 ug/mouse intratumoral twice per week, 6 doses, 11 days after the initial dose, p-values 0.05): statistically significant
tumor-free mice among mice remaining on study ([1]; study 1, 50 ug intratumoral group, day 42): Three of the four
tumor volume of remaining tumor-bearing mouse ([1]; study 1, 50 ug intratumoral group, fourth mouse, day 42): 854.19 mm^3
increase in survival compared to vehicle ([1]; study 1, 50 ug intratumoral single dose, by day 42 post CT26 inoculation, p-values<=0.05): statistically significant
tumor growth inhibition compared to vehicle ([1]; study 1, 50 ug/mouse intratumoral single dose, 11 days after the initial dose, p-values 0.05): statistically significant
anti-tumor activity (tumor growth inhibition over time) ([1]; study 1, intratumoral dosing 0.1, 1, 10 ug/mouse twice per week x6 or 50 ug single dose): dose-dependent anti-tumor activity
tumor volume of single mouse remaining on study ([1]; study 2, 10 ug intravenous group, day 32): 188.0 mm^3
tumor growth inhibition compared to vehicle ([1]; study 2, 10 ug/mouse intravenous twice per week, 6 doses, 15 days after the initial dose, p-values<=0.05): statistically significant
tumor-free mice among mice remaining on study ([1]; study 2, 100 ug intravenous group, day 32): One of the three
tumor volumes of remaining tumor-bearing mice ([1]; study 2, 100 ug intravenous group, day 32, individual mice): 1500.49 mm^3 and 962.61 mm^3
increase in survival compared to vehicle ([1]; study 2, 100 ug intravenous single dose, day 32 post CT-26 inoculation, p-values<=0.05): statistically significant increase
tumor growth inhibition compared to vehicle ([1]; study 2, 100 ug/mouse intravenous single dose, 15 days after the initial dose, p-values<=0.05): statistically significant
anti-tumor activity (tumor growth inhibition over time) ([1]; study 2, intravenous dosing 1, 10 ug/mouse twice per week x6 or 100 ug single dose): dose-dependent anti-tumor activity
CT26 tumor growth on re-challenge ([1]; study 3, fully regressed tumor-free mice re-challenged on day 80, opposite flank, vs naive control mice): rejected with no tumor growth
mice showing full tumor regressions ([1]; study 3 Group 2, 25 ug/mouse IV once per week x3): 5 out of 10
increase in survival compared to control Group 1 ([1]; study 3 Group 2, 25 ug/mouse IV once per week x3, 80 days after the first dose, p-values<=0.05): statistically significant
tumor growth inhibition compared to control Group 1 ([1]; study 3 Group 2, 25 ug/mouse intravenous in 0.5% Glycerol/4% dextrose once per week x3 (+Rat IgG1), 12 days after the initial dose, p-values<=0.05): statistically significant
increase in survival compared to control Group 5 ([1]; study 3 Group 7, 25 ug/mouse intratumoral DOPC/CHOL liposome once per week x3, 80 days after the first dose, p-values<=0.05): statistically significant
tumor growth inhibition compared to control Group 5 ([1]; study 3 Group 7, 25 ug/mouse intratumoral in DOPC/CHOL liposome once per week x3 (+Rat IgG1), 12 days after the initial dose, p-values<=0.05): statistically significant
survival benefit compared to the control group ([2]; study 4, liposomal CRX-601 IT 25 ug/mouse, vs blank liposome + rat IgG1, p=0.011): significant survival benefit
abscopal effect on untreated distant tumor ([2]; study 4 group 2, left flank tumor IT injection, liposomal 25 ug/mouse, right flank tumor untreated, mouse #4 and #6): distant right flank tumor regression
tumor growth [3]: inhibited tumor growth
